Results reported in patent US20020137929A1, “1 - (3-heterocyclylphenyl) isothiourea, -isourea, -guanidine and -amidine herbicidal agents” (Intellectual Property Department, BASF Aktiengesellschaft, priority 1998, published 2002).

What was measured:
ECHCG (Barnyardgrass) = experiment: Preemergence herbicidal evaluation; format: in vivo, Echinochloa crus-galli; conditions: rated 4-5 weeks after treatment
Outline: (§1)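 Sown cups got a single aqueous acetone spray of test compound (roughly 0.0156–0.500 kg/ha) before seedlings emerged. Evaluation, 4–5 weeks on, used a 0–9 visual scale covering plant stand, vigor, size, malformation, chlorosis and general appearance compared with controls.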

SETVI (Foxtail, Green) [1] = experiment: Preemergence herbicidal evaluation; format: in vivo, Setaria viridis; conditions: rated 4-5 weeks after treatment
Outline: as §1

[2] = system: TRZAWR (Wheat, Winter, cv Riband); experiment: Postemergence herbicidal evaluation; format: in vivo, Triticum aestivum; conditions: postemergence
Outline: (§2)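 Scores (0–9) reflect plant stand, vigor, malformation, size, chlorosis and general appearance relative to control, read 4 to 5 weeks after treatment and averaged where tests were repeated. Application: about 0.0156–0.500 kg/ha sprayed at 40 psi onto two-week seedlings.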

CYPIR (Rice Flatsedge) = experiment: Preemergence weed control under flooded paddy conditions; format: in vivo, Cyperus iria; conditions: rated 3-4 weeks after treatment
Outline: (§3)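 Ratings on a 0-9 visual scale cover stand, vigor, malformation, size, chlorosis and overall appearance relative to a control, taken three to four weeks post-treatment. Application was into flood water over freshly sown silt loam at roughly 0.0313 to 0.500 kg/ha.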

[3] = system: ECHORC (Watergrass (Calif.)); experiment: as above; format: in vivo, Echinochloa oryzoides; conditions: rated 3-4 weeks after treatment
Outline: as §3

GALAP (Galium) = experiment: Postemergence herbicidal evaluation; format: in vivo, Galium aparine; conditions: postemergence
Outline: as §2

MOOVA (Monochoria) = experiment: Preemergence weed control under flooded paddy conditions; format: in vivo, Monochoria vaginalis; conditions: rated 3-4 weeks after treatment
Outline: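 Seeds or propagules sown in top 0.5 cm of silt loam soil, flooded 1.5 to 3 cm above surface throughout. Compound in 50/50 v/v aqueous/acetone pipetted into flood water at about 0.0313 to 0.500 kg/ha. Visual 0-9 rating versus control after three to four weeks in greenhouse.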

ZEAMX (Corn, Field) = experiment: Preemergence herbicidal evaluation; format: in vivo, Zea mays; conditions: rated 4-5 weeks after treatment
Outline: as §1

ABUTH (Velvetleaf) = experiment: Preemergence herbicidal evaluation; format: in vivo, Abutilon theophrasti; conditions: rated 4-5 weeks after treatment
Outline: as §1

[4] = system: IPOHE (Morningglory, Ivyleaf); experiment: Postemergence herbicidal evaluation; format: in vivo, Ipomoea hederacea; conditions: postemergence
Outline: as §2

SETVI (Foxtail, Green) [5] = experiment: Postemergence herbicidal evaluation; format: in vivo, Setaria viridis; conditions: postemergence
Outline: as §2

[6] = system: IPOHE (Morningglory, Ivyleaf); experiment: Preemergence herbicidal evaluation; format: in vivo, Ipomoea hederacea; conditions: rated 4-5 weeks after treatment
Outline: as §1

[7] = rate 0.0156 kg/ha, rating scale 0-9
[8] = rate 0.0313 kg/ha, rating scale 0-9
[9] = rate 0.0625 kg/ha, rating scale 0-9
[10] = rate 0.1250 kg/ha, rating scale 0-9
[11] = rate 0.2500 kg/ha, rating scale 0-9

CCOC(=O)CN1C(=O)C(Cl)SC1=Nc1cc(-n2c(=O)cc(C(F)(F)F)n(C)c2=O)c(F)cc1Cl (stereo not shown) [Compound 126, Ethyl 5-chloro-2-{{2-chloro-5-[3,6-dihydro-3-methyl-2,6-dioxo-4-(trifluoromethyl)-1(2H)-pyrimidinyl]-4-fluorophenyl}imino}-4-oxo-3-thiazolidineacetate]
Preemergence herbicidal rating ECHCG (ECHCG (Barnyardgrass); rate 0.0625 kg/ha): 0.0
Preemergence herbicidal rating ECHCG (ECHCG (Barnyardgrass); rate 0.1250 kg/ha): 0.0
Preemergence herbicidal rating ECHCG (ECHCG (Barnyardgrass); rate 0.2500 kg/ha): 0.0
Preemergence herbicidal rating ECHCG (ECHCG (Barnyardgrass); rate 0.5000 kg/ha): 2.0
Preemergence herbicidal rating SETVI (SETVI (Foxtail, Green) [1]; rate 0.0625 kg/ha): 0.0
Preemergence herbicidal rating SETVI (SETVI (Foxtail, Green) [1]; rate 0.1250 kg/ha): 0.0
Preemergence herbicidal rating SETVI (SETVI (Foxtail, Green) [1]; rate 0.2500 kg/ha): 3.0
Preemergence herbicidal rating SETVI (SETVI (Foxtail, Green) [1]; rate 0.5000 kg/ha): 9.0
herbicidal rating TRZAWR ([2]; rate 0.0156 kg/ha): 2.0
herbicidal rating TRZAWR ([2]; rate 0.0313 kg/ha): 2.5
herbicidal rating TRZAWR ([2]; rate 0.0625 kg/ha): 3.0
herbicidal rating TRZAWR ([2]; rate 0.1250 kg/ha): 3.5
herbicidal effect rating, CYPIR (CYPIR (Rice Flatsedge); 0.0313 kg/ha): 0.0
herbicidal effect rating, CYPIR (CYPIR (Rice Flatsedge); 0.0625 kg/ha): 0.0
herbicidal effect rating, CYPIR (CYPIR (Rice Flatsedge); 0.1250 kg/ha): 0.0
herbicidal effect rating, CYPIR (CYPIR (Rice Flatsedge); 0.2500 kg/ha): 2.0
herbicidal effect rating, ECHORC ([3]; 0.0313 kg/ha): 0.0
herbicidal effect rating, ECHORC ([3]; 0.0625 kg/ha): 3.0
herbicidal effect rating, ECHORC ([3]; 0.1250 kg/ha): 6.0
herbicidal effect rating, ECHORC ([3]; 0.2500 kg/ha): 7.0
herbicidal rating GALAP (GALAP (Galium); rate 0.0156 kg/ha): 0.0
herbicidal rating GALAP (GALAP (Galium); rate 0.0313 kg/ha): 0.0
herbicidal rating GALAP (GALAP (Galium); rate 0.0625 kg/ha): 0.0
herbicidal rating GALAP (GALAP (Galium); rate 0.1250 kg/ha): 3.0
herbicidal effect rating, MOOVA (MOOVA (Monochoria); 0.0313 kg/ha): 3.0
herbicidal effect rating, MOOVA (MOOVA (Monochoria); 0.0625 kg/ha): 4.0
herbicidal effect rating, MOOVA (MOOVA (Monochoria); 0.1250 kg/ha): 6.0
herbicidal effect rating, MOOVA (MOOVA (Monochoria); 0.2500 kg/ha): 7.0
Preemergence herbicidal rating ZEAMX (ZEAMX (Corn, Field); rate 0.0625 kg/ha): 0.0
Preemergence herbicidal rating ZEAMX (ZEAMX (Corn, Field); rate 0.1250 kg/ha): 2.0
Preemergence herbicidal rating ZEAMX (ZEAMX (Corn, Field); rate 0.2500 kg/ha): 4.0
Preemergence herbicidal rating ZEAMX (ZEAMX (Corn, Field); rate 0.5000 kg/ha): 8.0
Preemergence herbicidal rating ABUTH (ABUTH (Velvetleaf); rate 0.0625 kg/ha): 5.0
Preemergence herbicidal rating ABUTH (ABUTH (Velvetleaf); rate 0.1250 kg/ha): 5.0
Preemergence herbicidal rating ABUTH (ABUTH (Velvetleaf); rate 0.2500 kg/ha): 9.0
Preemergence herbicidal rating ABUTH (ABUTH (Velvetleaf); rate 0.5000 kg/ha): 9.0
herbicidal rating IPOHE ([4]; rate 0.0156 kg/ha): 9.0
herbicidal rating IPOHE ([4]; rate 0.0313 kg/ha): 9.0
herbicidal rating IPOHE ([4]; rate 0.0625 kg/ha): 9.0
herbicidal rating IPOHE ([4]; rate 0.1250 kg/ha): 9.0
herbicidal rating SETVI (SETVI (Foxtail, Green) [5]; rate 0.0156 kg/ha): 0.0
herbicidal rating SETVI (SETVI (Foxtail, Green) [5]; rate 0.0313 kg/ha): 3.0
herbicidal rating SETVI (SETVI (Foxtail, Green) [5]; rate 0.0625 kg/ha): 3.0
herbicidal rating SETVI (SETVI (Foxtail, Green) [5]; rate 0.1250 kg/ha): 9.0
Preemergence herbicidal rating IPOHE ([6]; rate 0.0625 kg/ha): 0.0
Preemergence herbicidal rating IPOHE ([6]; rate 0.1250 kg/ha): 1.0
Preemergence herbicidal rating IPOHE ([6]; rate 0.2500 kg/ha): 1.0
Preemergence herbicidal rating IPOHE ([6]; rate 0.5000 kg/ha): 9.0

Cc1cccc(CN2C(=O)CSC2=Nc2cc(-n3c(=O)cc(C(F)(F)F)n(C)c3=O)c(F)cc2Cl)c1 [Compound 130, 3-{4-Chloro-2-fluoro-5-{[3-(m-methylbenzyl)-4-oxo-2-thiazolidinylidene]amino}phenyl}-1-methyl-6-(trifluoromethyl)-2,4 (1H, 3H)-pyrimidinedione]
Preemergence herbicidal rating ECHCG (ECHCG (Barnyardgrass); [7]): 0.0
Preemergence herbicidal rating ECHCG (ECHCG (Barnyardgrass); [8]): 0.0
Preemergence herbicidal rating ECHCG (ECHCG (Barnyardgrass); [9]): 1.0
Preemergence herbicidal rating ECHCG (ECHCG (Barnyardgrass); [10]): 4.0
Preemergence herbicidal rating ECHCG (ECHCG (Barnyardgrass); [11]): 7.0
Preemergence herbicidal rating SETVI (SETVI (Foxtail, Green) [1]; [7]): 0.0
Preemergence herbicidal rating SETVI (SETVI (Foxtail, Green) [1]; [8]): 6.0
Preemergence herbicidal rating SETVI (SETVI (Foxtail, Green) [1]; [9]): 7.0
Preemergence herbicidal rating SETVI (SETVI (Foxtail, Green) [1]; [10]): 7.0
Preemergence herbicidal rating SETVI (SETVI (Foxtail, Green) [1]; [11]): 9.0
herbicidal rating TRZAWR ([2]; rate 0.0156 kg/ha): 3.5
herbicidal rating TRZAWR ([2]; rate 0.0313 kg/ha): 3.5
herbicidal rating TRZAWR ([2]; rate 0.0625 kg/ha): 4.0
herbicidal effect rating, CYPIR (CYPIR (Rice Flatsedge); 0.0313 kg/ha): 0.0
herbicidal effect rating, CYPIR (CYPIR (Rice Flatsedge); 0.0625 kg/ha): 2.0
herbicidal effect rating, CYPIR (CYPIR (Rice Flatsedge); 0.1250 kg/ha): 4.0
herbicidal effect rating, CYPIR (CYPIR (Rice Flatsedge); 0.2500 kg/ha): 6.0
herbicidal effect rating, ECHORC ([3]; 0.0313 kg/ha): 0.0
herbicidal effect rating, ECHORC ([3]; 0.0625 kg/ha): 2.0
herbicidal effect rating, ECHORC ([3]; 0.1250 kg/ha): 3.0
herbicidal effect rating, ECHORC ([3]; 0.2500 kg/ha): 4.0
herbicidal rating GALAP (GALAP (Galium); rate 0.0156 kg/ha): 2.0
herbicidal rating GALAP (GALAP (Galium); rate 0.0313 kg/ha): 3.0
herbicidal rating GALAP (GALAP (Galium); rate 0.0625 kg/ha): 5.0
herbicidal effect rating, MOOVA (MOOVA (Monochoria); 0.0313 kg/ha): 0.0
herbicidal effect rating, MOOVA (MOOVA (Monochoria); 0.0625 kg/ha): 0.0
herbicidal effect rating, MOOVA (MOOVA (Monochoria); 0.1250 kg/ha): 6.0
herbicidal effect rating, MOOVA (MOOVA (Monochoria); 0.2500 kg/ha): 6.0
Preemergence herbicidal rating ZEAMX (ZEAMX (Corn, Field); [7]): 0.0
Preemergence herbicidal rating ZEAMX (ZEAMX (Corn, Field); [8]): 1.0
Preemergence herbicidal rating ZEAMX (ZEAMX (Corn, Field); [9]): 4.0
Preemergence herbicidal rating ZEAMX (ZEAMX (Corn, Field); [10]): 7.0
Preemergence herbicidal rating ZEAMX (ZEAMX (Corn, Field); [11]): 9.0
Preemergence herbicidal rating ABUTH (ABUTH (Velvetleaf); [7]): 1.0
Preemergence herbicidal rating ABUTH (ABUTH (Velvetleaf); [8]): 9.0
Preemergence herbicidal rating ABUTH (ABUTH (Velvetleaf); [9]): 9.0
Preemergence herbicidal rating ABUTH (ABUTH (Velvetleaf); [10]): 9.0
Preemergence herbicidal rating ABUTH (ABUTH (Velvetleaf); [11]): 9.0
herbicidal rating IPOHE ([4]; rate 0.0156 kg/ha): 9.0
herbicidal rating IPOHE ([4]; rate 0.0313 kg/ha): 9.0
herbicidal rating IPOHE ([4]; rate 0.0625 kg/ha): 9.0
herbicidal rating SETVI (SETVI (Foxtail, Green) [5]; rate 0.0156 kg/ha): 4.0
herbicidal rating SETVI (SETVI (Foxtail, Green) [5]; rate 0.0313 kg/ha): 6.0
herbicidal rating SETVI (SETVI (Foxtail, Green) [5]; rate 0.0625 kg/ha): 7.0
Preemergence herbicidal rating IPOHE [6, 7]: 0.0
Preemergence herbicidal rating IPOHE [6, 8]: 0.0
Preemergence herbicidal rating IPOHE [6, 9]: 2.0
Preemergence herbicidal rating IPOHE [6, 10]: 9.0
Preemergence herbicidal rating IPOHE [6, 11]: 7.0
